Measured values reported in US9695155B2, “Herbicidal substituted pyrimidinyloxy benzene compounds” (E. I. DU PONT DE NEMOURS AND COMPANY, priority 2013, dated 2017).

Assays:
[1] = tested on: barnyardgrass; experiment: Test C flooded paddy test; type: in vivo, Echinochloa crus-galli; details: Flood, scale 0 to 100 (0 no effect, 100 complete control), 13 to 15 days
Procedure, shortened: (§1)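 Pots were flooded to 3 cm above the soil surface at treatment, compound applied directly to the paddy water, and that depth held throughout. Plants were kept in a greenhouse for 13 to 15 days, then visually rated against untreated controls.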

[2] = tested on: wild poinsettia; experiment: Test E preemergence; type: in vivo, Euphorbia heterophylla; details: for Poinsettia, Wild plant response rating: scale 0 to 100 (0 no effect, 100 complete control); for Plant response rating, Poinsettia, Wild: scale 0 to 100, 0 no effect, 100 complete control
Procedure, shortened: (§2)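 Compound in a non-phytotoxic solvent mixture with surfactant was applied preemergence to seeds in silt loam soil, or postemergence to plants 2 to 18 cm tall grown in peat-based potting medium. Plants were kept in a greenhouse for 14 to 21 days, then rated visually against untreated controls on a 0 (no effect) to 100 (complete control) scale.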

[3] = tested on: waterhemp; experiment: Test E preemergence; type: in vivo, Amaranthus rudis; details: for Waterhemp plant response rating: scale 0 to 100 (0 no effect, 100 complete control); for Plant response rating, Waterhemp: scale 0 to 100, 0 no effect, 100 complete control
Procedure, shortened: as §2

[4] = tested on: barnyardgrass; experiment: Test E preemergence; type: in vivo, Echinochloa crus-galli; details: for Barnyardgrass plant response rating: scale 0 to 100 (0 no effect, 100 complete control); for Plant response rating, Barnyardgrass: scale 0 to 100, 0 no effect, 100 complete control
Procedure, shortened: as §2

[5] = tested on: corn; experiment: Test E preemergence; type: in vivo, Zea mays; details: for Corn plant response rating: scale 0 to 100 (0 no effect, 100 complete control); for Plant response rating, Corn: scale 0 to 100, 0 no effect, 100 complete control
Procedure, shortened: as §2

[6] = tested on: ducksalad; experiment: Test C flooded paddy test; type: in vivo, Heteranthera limosa; details: Flood, scale 0 to 100 (0 no effect, 100 complete control), 13 to 15 days
Procedure, shortened: as §1

[7] = tested on: goosegrass; experiment: Test E preemergence; type: in vivo, Eleusine indica; details: for Goosegrass plant response rating: scale 0 to 100 (0 no effect, 100 complete control); for Plant response rating, Goosegrass: scale 0 to 100, 0 no effect, 100 complete control
Procedure, shortened: as §2

[8] = tested on: lambsquarters; experiment: Test E preemergence; type: in vivo, Chenopodium album; details: for Lambsquarters plant response rating: scale 0 to 100 (0 no effect, 100 complete control); for Plant response rating, Lambsquarters: scale 0 to 100, 0 no effect, 100 complete control
Procedure, shortened: as §2

[9] = tested on: Brazilian crabgrass; experiment: Test E preemergence; type: in vivo, Digitaria horizontalis; details: for Crabgrass, Brazil plant response rating: scale 0 to 100 (0 no effect, 100 complete control); for Plant response rating, Crabgrass, Brazil: scale 0 to 100, 0 no effect, 100 complete control
Procedure, shortened: as §2

[10] = tested on: field bindweed; experiment: Test E preemergence; type: in vivo, Convolvulus arvensis; details: for Field Bindweed plant response rating: scale 0 to 100 (0 no effect, 100 complete control); for Plant response rating, Field Bindweed: scale 0 to 100, 0 no effect, 100 complete control
Procedure, shortened: as §2

## N#Cc1cccc(Oc2ncc(Br)cn2)c1-n1cc(C(F)(F)F)cn1 [Compound 59, 3-[(5-bromo-2-pyrimidinyl)oxy]-2-[4-(trifluoromethyl)-1H-pyrazol-1-yl]benzonitrile]
[1]; 31 g ai/ha
  Plant response rating, Barnyardgrass: 0
[1]; 62 g ai/ha
  Plant response rating, Barnyardgrass: 0
[1]; 125 g ai/ha
  Plant response rating, Barnyardgrass: 30
[1]; 250 g ai/ha
  Plant response rating, Barnyardgrass: 40
[2]; 16 g ai/ha
  Poinsettia, Wild plant response rating: 0
[2]; 31 g ai/ha
  Poinsettia, Wild plant response rating: 0
[2]; 62 g ai/ha
  Poinsettia, Wild plant response rating: 10
[2]; 125 g ai/ha
  Plant response rating, Poinsettia, Wild: 20
[2]; 250 g ai/ha
  Plant response rating, Poinsettia, Wild: 100
[3]; 16 g ai/ha
  Waterhemp plant response rating: 100
[3]; 31 g ai/ha
  Waterhemp plant response rating: 100
[3]; 62 g ai/ha
  Waterhemp plant response rating: 100
[3]; 125 g ai/ha
  Plant response rating, Waterhemp: 100
[3]; 250 g ai/ha
  Plant response rating, Waterhemp: 100
[4]; 16 g ai/ha, preemergence
  Barnyardgrass plant response rating: 0
[4]; 31 g ai/ha, preemergence
  Barnyardgrass plant response rating: 20
[4]; Preemergence, 62 g ai/ha
  Plant response rating, Barnyardgrass: 50
[4]; preemergence, 125 g ai/ha
  Plant response rating, Barnyardgrass: 75
[4]; preemergence, 250 g ai/ha
  Plant response rating, Barnyardgrass: 95
[5]; 16 g ai/ha
  Corn plant response rating: 0
[5]; 31 g ai/ha
  Corn plant response rating: 0
[5]; 62 g ai/ha
  Corn plant response rating: 0
[5]; 125 g ai/ha
  Plant response rating, Corn: 30
[5]; 250 g ai/ha
  Plant response rating, Corn: 50
[6]; 31 g ai/ha
  Plant response rating, Ducksalad: 50
[6]; 62 g ai/ha
  Plant response rating, Ducksalad: 75
[6]; 125 g ai/ha
  Plant response rating, Ducksalad: 95
[6]; 250 g ai/ha
  Plant response rating, Ducksalad: 95
[7]; 16 g ai/ha
  Goosegrass plant response rating: 15
[7]; 31 g ai/ha
  Goosegrass plant response rating: 25
[7]; 62 g ai/ha
  Goosegrass plant response rating: 65
[7]; 125 g ai/ha
  Plant response rating, Goosegrass: 98
[7]; 250 g ai/ha
  Plant response rating, Goosegrass: 98
[8]; 16 g ai/ha
  Lambsquarters plant response rating: 98
[8]; 31 g ai/ha
  Lambsquarters plant response rating: 98
[8]; 62 g ai/ha
  Lambsquarters plant response rating: 100
[8]; 125 g ai/ha
  Plant response rating, Lambsquarters: 100
[8]; 250 g ai/ha
  Plant response rating, Lambsquarters: 100
[9]; 16 g ai/ha
  Crabgrass, Brazil plant response rating: 80
[9]; 31 g ai/ha
  Crabgrass, Brazil plant response rating: 100
[9]; 62 g ai/ha
  Crabgrass, Brazil plant response rating: 100
[9]; 125 g ai/ha
  Plant response rating, Crabgrass, Brazil: 100
[9]; 250 g ai/ha
  Plant response rating, Crabgrass, Brazil: 100
[10]; 16 g ai/ha
  Field Bindweed plant response rating: 0
[10]; 31 g ai/ha
  Field Bindweed plant response rating: 5
[10]; 62 g ai/ha
  Field Bindweed plant response rating: 60
[10]; 125 g ai/ha
  Plant response rating, Field Bindweed: 60
[10]; 250 g ai/ha
  Plant response rating, Field Bindweed: 100

## FC(F)(F)c1cnn(-c2c(Cl)cccc2Oc2ncc(Cl)cn2)c1 [Compound 167]
[1]; 31 g ai/ha
  Plant response rating, Barnyardgrass: 0
[1]; 62 g ai/ha
  Plant response rating, Barnyardgrass: 0
[1]; 125 g ai/ha
  Plant response rating, Barnyardgrass: 0
[1]; 250 g ai/ha
  Plant response rating, Barnyardgrass: 0
[2]; 31 g ai/ha
  Poinsettia, Wild plant response rating: 0
[2]; 62 g ai/ha
  Poinsettia, Wild plant response rating: 20
[2]; 125 g ai/ha
  Plant response rating, Poinsettia, Wild: 25
[3]; 31 g ai/ha
  Waterhemp plant response rating: 98
[3]; 62 g ai/ha
  Waterhemp plant response rating: 98
[3]; 125 g ai/ha
  Plant response rating, Waterhemp: 100
[4]; 16 g ai/ha, preemergence
  Barnyardgrass plant response rating: 20
[4]; 31 g ai/ha, preemergence
  Barnyardgrass plant response rating: 20
[4]; 62 g ai/ha, preemergence
  Barnyardgrass plant response rating: 25
[4]; preemergence, 125 g ai/ha
  Plant response rating, Barnyardgrass: 75
[5]; 16 g ai/ha
  Corn plant response rating: 0
[5]; 31 g ai/ha
  Corn plant response rating: 0
[5]; 62 g ai/ha
  Corn plant response rating: 15
[5]; 125 g ai/ha
  Plant response rating, Corn: 25
[6]; 31 g ai/ha
  Plant response rating, Ducksalad: 0
[6]; 62 g ai/ha
  Plant response rating, Ducksalad: 50
[6]; 125 g ai/ha
  Plant response rating, Ducksalad: 60
[6]; 250 g ai/ha
  Plant response rating, Ducksalad: 80
[7]; 31 g ai/ha
  Goosegrass plant response rating: 60
[7]; 62 g ai/ha
  Goosegrass plant response rating: 75
[7]; 125 g ai/ha
  Plant response rating, Goosegrass: 98
[8]; 31 g ai/ha
  Lambsquarters plant response rating: 98
[8]; 62 g ai/ha
  Lambsquarters plant response rating: 100
[8]; 125 g ai/ha
  Plant response rating, Lambsquarters: 100
[9]; 16 g ai/ha
  Crabgrass, Brazil plant response rating: 0
[9]; 31 g ai/ha
  Crabgrass, Brazil plant response rating: 20
[9]; 62 g ai/ha
  Crabgrass, Brazil plant response rating: 75
[9]; 125 g ai/ha
  Plant response rating, Crabgrass, Brazil: 100
[10]; 16 g ai/ha
  Field Bindweed plant response rating: 0
[10]; 31 g ai/ha
  Field Bindweed plant response rating: 0
[10]; 62 g ai/ha
  Field Bindweed plant response rating: 0
[10]; 125 g ai/ha
  Plant response rating, Field Bindweed: 10
